Measurements as given in article PMC11834790, “Pyridine indole hybrids as novel potent CYP17A1 inhibitors” (Journal of Enzyme Inhibition and Medicinal Chemistry, 2025).
Where “and” joins values, the source holds several entries; their conditions need not be identical. Equal entries are not always repeated. Blank lines part the entries; values can stand above or below the compound they belong to.

Assays:
[1] = biological target: T1, CYP17A1 (Homo sapiens, UniProt P05093); experiment: CYP17A1 17α-hydroxylase activity assay in NCI-H295R cells ([14C]-progesterone, TLC); format: cell-based; conditions: 4 h, DMSO = 100, read-out: CYP17A1 Hydroxylase activity, Mean (percentage of activity remaining relative to the control)
T1 construct: immortalised human adrenal cells expressing CYP17A1 and other steroidogenic enzymes; endogenous in cells; host or cells: NCI-H295R (human adrenal cells)
T1 sequence (P05093 1-508): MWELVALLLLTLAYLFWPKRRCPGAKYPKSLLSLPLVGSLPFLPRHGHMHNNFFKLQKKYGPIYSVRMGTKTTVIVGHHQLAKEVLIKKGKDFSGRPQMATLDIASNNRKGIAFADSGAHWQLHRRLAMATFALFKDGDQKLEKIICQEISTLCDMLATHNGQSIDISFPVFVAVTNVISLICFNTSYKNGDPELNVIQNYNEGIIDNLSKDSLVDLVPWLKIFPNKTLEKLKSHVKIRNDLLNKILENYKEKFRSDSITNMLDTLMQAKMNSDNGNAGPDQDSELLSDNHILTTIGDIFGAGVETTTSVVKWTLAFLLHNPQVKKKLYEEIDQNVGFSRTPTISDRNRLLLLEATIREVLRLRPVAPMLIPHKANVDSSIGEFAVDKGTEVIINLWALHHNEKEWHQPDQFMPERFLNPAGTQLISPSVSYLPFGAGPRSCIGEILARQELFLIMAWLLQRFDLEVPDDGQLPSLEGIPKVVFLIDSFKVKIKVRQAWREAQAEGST
Procedure: (§1) Human adrenal NCI-H295R cells are an established model for assay of CYP17A1 activities. The NCI-H295R cells were seeded in 12-well plates at 500 000 cells per well and incubated overnight. On the following day, 10 µM of test compounds were added to the wells with fresh medium and incubated for 4 h. Abiraterone was used as a reference, and DMSO was included as a control. For assessing CYP17A1 hydroxylase activity, cells were treated with [^14C]-Progesterone at 10 000 cpm/1 µM per well. Trilostane was added prior to the test compounds and substrate to inhibit 3β-hydroxysteroid dehydrogenase activity so that a clean assay of only CYP17A1 activity could be performed[20]^,[27]^,[28]. Radiolabeled steroids were extracted from the media using a mixture of ethyl acetate and isooctane (1:1 v/v) and separated by Thin Layer Chromatography (TLC) on silica gel-coated aluminium plates (Supelco® Analytics, Sigma-Aldrich Chemie GmbH, Taufkirchen, Germany). TLC spots were visualised on a phosphor screen and detected by autoradiography using a Typhoon™ FLA-7000 PhosphorImager (GE Healthcare, Uppsala, Sweden). Radioactivity was quantified with ImageQuant™ TL analysis software (GE Healthcare Europe GmbH, Freiburg, Germany), and enzyme activity was expressed as the percentage of radioactivity incorporated into the product relative to the total radioactivity. For CYP17A1 lyase activity, cells were exposed to 50 000 cpm/1 µM [21-^3H]-17α-hydroxypregnenolone per well under similar conditions. The tritiated water release assay was used to measure the conversion of 17OH-Pregnenolone to DHEA. Steroids in the media were precipitated using a 5% activated charcoal/0.5% dextran solution. Enzyme activity was evaluated based on the water-soluble tritiated by-product formed in equimolar amounts with DHEA, with radioactivity in the aqueous phase quantified by liquid scintillation counting (MicroBeta2® Plate Counter, PerkinElmer Inc., Waltham, MA, USA). Percent inhibition was calculated relative to control samples.

[2] = biological target: T1, CYP17A1; experiment: CYP17A1 17,20-lyase activity assay in NCI-H295R cells (tritiated water release); format: cell-based; conditions: 4 h, DMSO = 100, read-out: CYP17A1 Lyase activity, Mean (percentage of activity remaining relative to the control)
Procedure: as §1

[3] = test system: adrenal steroidogenesis in NCI-H295R cells; experiment: Steroid profiling by LC-MS in NCI-H295R cells; format: cell-based, human; conditions: compounds at 10 µM; for Androsterone, Mean / Testosterone, Mean / Progesterone, Mean / Androstendione, Mean / 17a-Hydroxyprogesterone, Mean / DHEA, Mean / 11-Deoxycortisol, Mean / 11-Deoxycorticosterone, Mean / Pregnenolone, Mean: 1 µM pregnenolone; for Androsterone, Mean / Cortisone, Mean / DHEA-S, Mean / Dihydrotestosterone, Mean: DMSO 0; for Testosterone, Mean: DMSO 0.4785; for Progesterone, Mean: DMSO 4.814; for Androstendione, Mean: DMSO 7.577; for 17a-Hydroxyprogesterone, Mean: DMSO 9.967; for DHEA, Mean: DMSO 15.119; for 11-Deoxycortisol, Mean: DMSO 26.594; for 11-Deoxycorticosterone, Mean: DMSO 28.1555; for Pregnenolone, Mean: DMSO 2043.56; for Cortisone, Mean / DHEA-S, Mean / Dihydrotestosterone, Mean: not detected within the experimental timeframe
Procedure: (§2) Steroid quantification was performed using Liquid Chromatography–Mass Spectrometry (LC-MS), following established protocols to study effect of compounds on adrenal steroidogenesis. Human adrenal NCI-H295R cells were seeded in 12-well plates at 500 000 cells per well and treated with fresh growth medium containing the test compounds for 4 h. Subsequently, 1 µM pregnenolone was added and incubated for an additional 4 h. Steroids were extracted from 500 µL aliquots of cell media, separated, and quantified according to the referenced methodology.

[4] = test system: DU-145 cells; experiment: Scratch (wound healing) assay; format: cell-based, human; conditions: DU-145, 10 µM; for Wound area, Mean (area remaining open): 24 h, DMSO 170.5; for Effect on cell migration (in words): after 24 h
Procedure: Human prostate cancer DU-145 cells show strong cell proliferation and therefore, are an established model for assay of antiproliferative effects of test compounds. DU-145 cells were plated in 24-well plates at 50 000 cells per well and grown until they reached 85% confluence. To inhibit cell proliferation, cells were treated with 5 µg/mL mitomycin for 2 h. A wound was created using a 10 µL pipette tip. The cells were then exposed to drugs at a concentration of 10 µM, while control wells received DMSO. Wound closure was observed and photographed using an optical microscope after 24 h. Images were analysed using ImageJ software (version 1.54j).

[5] = biological target: T1, CYP17A1; experiment: CYP17A1 activity calculated as ratios of steroid products to substrates (LC-MS); format: cell-based; conditions: normalised to DMSO-treated cells (100%), NCI-H295R
Procedure: as §2
To provide deeper insights into CYP17A1 inhibition, the enzyme activity was calculated using ratios of steroid products to substrates, focusing on dual activities of CYP17A1 (Figure 4(B)).

[6] = biological target: T1, CYP17A1; experiment: CYP17A1 17,20-lyase activity assay in NCI-H295R cells (tritiated water release); format: cell-based; conditions: dose-response, read-out: IC50, inhibition of 17,20-lyase activity
[7] = test system: VCaP cells; experiment: Alamar blue (resazurin) cell viability, VCaP; format: cell-based, human; conditions: Homo sapiens, VCaP, 24 h
Procedure: (§3) LNCaP and RWPE-1 cells were plated in 96-well plates at 10 000 cells per well and incubated overnight at 37 °C with 5% CO2. VCaP cells were plated at 12 000 cells per well under the same conditions. After 24 h, the medium was replaced with fresh medium containing the compounds or abiraterone at a final concentration of 10 µM. Cells were incubated for an additional 24 and 48 h. Cell viability was measured using the Alamar Blue assay. Post-incubation, 0.05 mg/mL Alamar Blue solution in phosphate-buffered saline (PBS) was added to each well. The plates were incubated in the dark at 37 °C for 4 h, and fluorescence was measured at an excitation wavelength of 550 nm and an emission wavelength of 590 nm. Cell viability was calculated relative to control sample treated with DMSO. All experiments were conducted in triplicate.

[8] = test system: LNCaP cells; experiment: Alamar blue (resazurin) cell viability, LNCaP; format: cell-based, human; conditions: 10 µM; for Effect on LNCaP cell viability (in words): 48 h
Procedure: as §3

- remaining activity at 10 µM [1]: 96%
- remaining activity at 10 µM [2]: 113%
Compound: N#Cc1c(-c2cccnc2)cc(-c2cccnc2)c(C#N)c1N [Compound 7, 2-Amino-4,6-di(pyridin-3-yl)isophthalonitrile]

- remaining activity at 10 µM [1]: 103%
- remaining activity at 10 µM [2]: 84.8%
Compound: N#Cc1c(-c2ccncc2)cc(-c2ccncc2)c(C#N)c1N [Compound 8, 2-Amino-4,6-di(pyridin-4-yl)isophthalonitrile]

- remaining activity at 10 µM [1]: 63%
- remaining activity at 10 µM [2]: 66.8%
Compound: N#Cc1c(-c2ccncc2)cc(-c2cccnc2)c(C#N)c1N [Compound 9, 2-Amino-4-(pyridin-3-yl)-6-(pyridin-4-yl)isophthalonitrile]

- remaining activity at 10 µM [1]: 32%
- remaining activity at 10 µM [2]: 58.2%
Compound: CCCn1nnc2cc(-c3cc(-c4ccncc4)c(C#N)c(N)c3C#N)ccc21 [Compound 10, 2-Amino-4–(1-propyl-1H-benzo[d][1,2,3]triazol-5-yl)-6-(pyridin-4-yl)isophthalonitrile]

- remaining activity at 10 µM [1]: 76%
- remaining activity at 10 µM [2]: 93.5%
Compound: c1cncc(-c2ccc(-c3ccc4[nH]ccc4c3)cc2)c1 [Compound 13, 5-(4-(Pyridin-3-yl)phenyl)-1H-indole]

- remaining activity at 10 µM [1]: 87%
- remaining activity at 10 µM [2]: 57.3%
Compound: c1cc(-c2ccc(-c3ccc4[nH]ccc4c3)cc2)ccn1 [Compound 15, 5-(4-(Pyridin-4-yl)phenyl)-1H-indole]
- Effect on LNCaP cell viability (in words) [8]: strong effect

Further lines, the compound ahead of its results:

Compound: CCCn1nnc2cc(-c3cc(-c4ccncc4)c(C#N)c(N)n3)ccc21 [Compound 1, 2-Amino-6–(1-propyl-1H-benzo[d][1,2,3]triazol-5-yl)-[4,4′-bipyridine]-3-carbonitrile]
- remaining activity at 10 µM [1]: 45%
- remaining activity at 10 µM [2]: 46.3%
- Androsterone, Mean [3]: 0 nmol/L
- Testosterone, Mean [3]: 0.4455 nmol/L
- Progesterone, Mean [3]: 27.8235 nmol/L
- Androstendione, Mean [3]: 1.564 nmol/L
- 17a-Hydroxyprogesterone, Mean [3]: 0.977 nmol/L
- DHEA, Mean [3]: 1.1015 nmol/L
- 11-Deoxycortisol, Mean [3]: 5.22 nmol/L
- 11-Deoxycorticosterone, Mean [3]: 41.58 nmol/L and 41.577 nmol/L
- Pregnenolone, Mean [3]: 2228.179 nmol/L
- Cortisone, Mean [3]: 0 nmol/L
- DHEA-S, Mean [3]: 0 nmol/L
- Dihydrotestosterone, Mean [3]: 0 nmol/L
- Wound area, Mean (area remaining open) [4]: 731.5 Pixels^2
- Effect on cell migration (in words) [4]: less pronounced effect comparable to that exerted by abiraterone
- 17α-Hydroxylase activity (ratios of steroid products to substrates) [5]: 1.8%
- Combined 17α-hydroxylase and 17,20-lyase activity (ratios of steroid products to substrates) [5]: 6.6%
- IC50 [6]: 10 nM

Compound: N#Cc1c(-c2ccccc2)cc(-c2ccccc2)nc1N [Compound 2, 2-Amino-4,6-diphenylnicotinonitrile]
- remaining activity at 10 µM [1]: 67%
- remaining activity at 10 µM [2]: 93.7%

Compound: N#Cc1c(-c2ccccc2)cc(-c2cccnc2)nc1N [Compound 3, 6-Amino-4-phenyl-[2,3′-bipyridine]-5-carbonitrile]
- remaining activity at 10 µM [1]: 84%
- remaining activity at 10 µM [2]: 94.7%

Compound: N#Cc1c(-c2cccnc2)cc(-c2ccccc2)nc1N [Compound 4, 2′-Amino-6′-phenyl-[3,4′-bipyridine]-3′-carbonitrile]
- remaining activity at 10 µM [1]: 71%
- remaining activity at 10 µM [2]: 68.5%

Compound: N#Cc1c(-c2ccccc2)cc(-c2ccncc2)c(C#N)c1N [Compound 6, 3-Amino-5-(pyridin-4-yl)-[1,1′-biphenyl]-2,4-dicarbonitrile]
- viability at 10 µM [7]: < 50%
- Cytotoxic effect on LNCaP cells (in words) ([8]; 24 and 48 h): marked reduction in viability
- remaining activity at 10 µM [1]: 53%
- remaining activity at 10 µM [2]: 57.4%

Compound: c1cc(-c2ccncc2)cc(-c2ccc3[nH]ccc3c2)c1 [Compound 14, 5-(3-(Pyridin-4-yl)phenyl)-1H-indole]
- Effect on LNCaP cell viability (in words) [8]: strong effect
- remaining activity at 10 µM [1]: 35%
- remaining activity at 10 µM [2]: 23.9%
- Androsterone, Mean [3]: 0.61 nmol/L
- Testosterone, Mean [3]: 0.4105 nmol/L
- Progesterone, Mean [3]: 51.7765 nmol/L
- Androstendione, Mean [3]: 1.359 nmol/L
- 17a-Hydroxyprogesterone, Mean [3]: 1.6245 nmol/L
- DHEA, Mean [3]: 0.6075 nmol/L
- 11-Deoxycortisol, Mean [3]: 3.75 nmol/L and 3.7485 nmol/L
- 11-Deoxycorticosterone, Mean [3]: 3.518 nmol/L
- Pregnenolone, Mean [3]: 2377.463 nmol/L
- Cortisone, Mean [3]: 0 nmol/L
- DHEA-S, Mean [3]: 0 nmol/L
- Dihydrotestosterone, Mean [3]: 0 nmol/L
- Wound area, Mean (area remaining open) [4]: 7074 Pixels^2
- Effect on cell migration (in words) [4]: significant inhibition of cell migration
- 17α-Hydroxylase activity (ratios of steroid products to substrates) [5]: 1.5%
- IC50 [6]: 26 nM
